Experimental data taken from US10781212B2, “2,6-diamino pyridine compounds” (Eli Lilly and Company, priority 2018, dated 2020).
Blank lines part the entries; values can stand above or below the compound they belong to.

What was measured:
[1] = target: human KHK-A (Homo sapiens (Human), UniProt P50053); assay: KHK enzyme activity assay, human KHK-A; type: biochemical; conditions: fructose 1.25 mM, ATP 150 μM; read-out: hKHK-A IC50
Method: (§1) KHK Enzyme Activity Assay for Human KHK-C and Human KHK-A
(§2) Enzyme is prepared in assay buffer [50 mM 4-(2-hydroxyethyl)piperazine-1-ethanesulfonic acid (HEPES), 10 mM potassium chloride, 100 mM magnesium chloride, 2 mM tris(2-carboxyethyl)phosphine (TCEP), 0.01% n-octyl glucoside] and incubated with compounds at RT for 15 min. The reaction is carried out in 100 μL volumes containing substrate concentrations of fructose (250 μM for KHK-C assay and 1.25 mM for KHK-A assay) and ATP (150 μM for both isoforms); which are further incubated at RT for 20 min. The reaction is then halted by the addition of stop buffer; consisting of 0.2% formic acid and 1 μg/ml ^13C6-fructose-6-phosphate (^13C6-F6P) internal standard. […] RapidFire MS Analysis for Quantitation of F1P: […]
(§3) Solvent A, used for sample loading and washing, is 6 mM octylamine (Acros Organics 129495000) brought to pH 5.0 using acetic acid. […] Samples are sequentially analyzed by aspirating 10 μL onto the collection loop under vacuum directly from multiwell plates. […]
(§4) The triple quadrupole mass spectrometer is equipped with an ESI source and analytes are monitored using selected reaction monitoring (SRM) in negative mode [M−H]−. F1P is monitored at m/z 259.02/96.9 and ^13C6-fructose-6-phosphate is monitored at m/z 264.99/97. The area ratio values for F1P is calculated using ^13C6-fructose-6-phosphate as internal standard.

[2] = Pharmacokinetics in FVB wild type mice; type: in vivo; conditions: mouse, IV 1 mg/kg
Method: (§5) Liquid Chromatograph with Tandem Mass Spectrometry (LC-MS/MS) Method for Pharmacokinetic Assays: Samples are extracted using a protein precipitation by adding 180 μL of MeOH:ACN (1:1, v/v) containing an internal standard and 25 μL (rodent samples) or 50 μL(non-rodent samples) of plasma. Samples are then diluted with Methanol:Water (1:1, v/v) to get concentrations within standard curve range. Diluted samples are analyzed by LC-MS/MS using a Sciex API 4000 triple quadrupole mass spectrometer (Applied Biosystems/MDS; Foster City, Calif.) equipped with a TurbolonSpray interface, and operated in positive ion mode. The analytes are chromatographically separated using a Thermo Betasil C18 5 um 20×2.1 mm Javelin column (rodent samples) or Advantage ECHIELON C18 4 um 20 mm×2.1 mm ID column (non-rodent samples). LC conditions are Water/1 M ammonium bicarbonate, (2000:10, v/v) (Mobile Phase A), and MeOH/1 M ammonium bicarbonate, (2000:10, v/v) (Mobile Phase B).
(§6) Example 1 is administered by a single intravenous (IV; 1 mg/kg; volume of 1 mL/kg) dose in vehicle. Blood is collected from each animal at 0, 0.08, 0.25, 0.5, 1, 2, 4, 8, 12, and 24 h post-dosage. Liver, spleen, and pancreas is collected, weighed and perfused at 24 h post-dosage. The plasma and tissue concentrations of Example 1 are determined by a LC-MS/MS method as described above.

[3] = system: human hepatocytes; assay: Intrinsic clearance in human hepatocytes (-/+ABT); type: in vitro ADME; conditions: with vs without ABT (pan-CYP450 inhibitor)
Method: Intrinsic Clearance in Human Hepatocytes (−/+ABT)
This method is intended to identify in vitro metabolic clearance by substrate depletion in hepatocytes. Incubation in the presence and absence of ABT, a pan-CYP450 enzyme inhibitor, is used to estimate the contribution of CYP-mediated metabolism. Cryopreserved human hepatocytes are thawed at 37° C., spun down and reconstituted in hepatocyte maintenance media to a density of 1×10^6 viable cells/mL. To a pre-warmed 96-well plate, 196 μL of the hepatocyte suspension is added to each well. The cells are pre-incubated with and without ABT as follows: for ABT pre-incubation, 2 μL of 100 mM ABT solution is added (2 μL of media without ABT is added to control samples), and the plate incubated at 37° C. for 30 min under constant shaking (˜600 rpm). Following, 2 μL of a 30 μM stock solution of test article is added and at 0, 15, 30, 60, 120, 240 min 20 μL aliquots are taken and quenched by transfer to ACN containing internal standard. Following centrifugation at 4000 rpm for 30 min, supernatant concentrations are determined by LC-MS/MS. Clearance is calculated from the slope of % compound remaining over time.

[4] = Pharmacokinetics in OATP1A/1B knockout mice; type: in vivo; conditions: OATP1A/1B knockout (Taconic #10707), mouse, IV 1 mg/kg
Method: as §5, §6

[5] = target: OATP1B3 (Homo sapiens (Human), UniProt Q9NPD5); assay: Inhibition of OATP1B3 (rosuvastatin uptake); type: cell-based; conditions: rosuvastatin 400 nM substrate, 30 min pre-incubation
OATP1B3, sequence (Q9NPD5 whole entry, species assumed): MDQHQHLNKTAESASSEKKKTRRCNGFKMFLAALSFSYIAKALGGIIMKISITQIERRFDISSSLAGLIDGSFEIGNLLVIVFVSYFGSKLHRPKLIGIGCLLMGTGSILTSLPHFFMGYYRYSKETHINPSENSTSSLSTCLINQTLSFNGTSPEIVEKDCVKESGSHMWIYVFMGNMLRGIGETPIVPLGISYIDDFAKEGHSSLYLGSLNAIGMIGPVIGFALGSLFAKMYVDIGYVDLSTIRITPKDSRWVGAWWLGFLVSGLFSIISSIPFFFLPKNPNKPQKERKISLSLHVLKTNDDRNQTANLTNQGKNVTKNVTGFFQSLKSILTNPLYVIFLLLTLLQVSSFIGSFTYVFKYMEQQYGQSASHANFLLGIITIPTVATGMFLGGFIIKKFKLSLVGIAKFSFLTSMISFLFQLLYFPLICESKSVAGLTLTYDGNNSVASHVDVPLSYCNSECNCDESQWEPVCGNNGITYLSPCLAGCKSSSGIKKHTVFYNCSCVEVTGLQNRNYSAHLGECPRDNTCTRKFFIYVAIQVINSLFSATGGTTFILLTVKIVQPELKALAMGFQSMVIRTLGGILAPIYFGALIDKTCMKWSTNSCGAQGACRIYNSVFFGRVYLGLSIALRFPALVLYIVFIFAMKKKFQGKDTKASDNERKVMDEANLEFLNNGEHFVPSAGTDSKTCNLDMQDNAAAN
Method: (§7) Inhibition of OATP1B1 and OATP1B3
(§8) The OATP1B1, OATP1B3, and vector control (VC) cells are grown in 5% CO2 at 37° C. in a humidified atmosphere in DMEM supplemented with 10% FBS, 50 μg/mL gentamycin, and 5 μg/mL blasticidin. The cells are seeded in 24-well BioCoat Poly-D-Lysine plates. The cells are treated with 5 mM sodium butyrate in supplemented DMEM 24 h prior to experimentation. Cell cultures are washed twice with pre-warmed PBS prior to experimentation. After washing, all cell types are incubated for 30 min at 37° C. in 200 μL buffer, buffer plus varying concentration of test article, or with appropriate positive control inhibitor. Based upon preliminary data concentrations from 0.025 to 12.5 μM for OATP1B1 and 0.20 to 100 μM for OATP1B3 (nominal) are tested. At the start of the preincubation, 50 µL of buffer is removed for determination of in-well test article concentrations by LC-MS/MS. Following the pre-incubation period, the buffer is removed. […] Samples are taken from each well from plates to count for radioactivity and protein concentration in each well is determined by bicinchoninic acid method. IC50 values are determined by fitting the data using GraphPad Prism. Nominal concentrations are converted to measured concentrations prior to fitting.

[6] = Pharmacokinetics in cynomolgus monkeys; type: in vivo; conditions: cynomolgus monkey, plasma, PO 10 mg/kg
Method: as §5
The compounds is administered by a single oral (PO; 10 mg/kg; volume of 5 mL/kg) dose in vehicle. Blood is collected from each animal at 0, 0.25, 0.5, 1, 2, 4, 8, 12, 24, 32, 48, and 72 h post-dosage. The plasma concentrations of Example 1 are determined by a LC-MS/MS method as described above.

[7] = Elimination pathways in bile duct cannulated Beagle dogs; type: in vivo; conditions: IV 1 mg/kg
Method: as §5
Example 1 is administered by a single intravenous (IV; 1 mg/kg; volume of 1 mL/kg) dose in vehicle. Blood is collected from each animal at 0, 0.033, 0.083, 0.25, 0.5, 1, 2, 4, 8, 12, 24, 32, 48 and 72 h post-dosage. Bile is collected from each animal at 1, 2, 3, 4, 5, 6, 12, 18, 24, 32, 48 and 72 h post-dosage. Urine is collected at 12, 24, 48, and 72 h and feces collected at 24, 48, and 72 h post-dosage. The plasma, bile, urine and feces concentrations of Example 1 are determined by a LC-MS/MS method as described above.

[8] = target: human KHK-C (Homo sapiens (Human), UniProt P50053); assay: KHK enzyme activity assay, human KHK-C; type: biochemical; conditions: fructose 250 μM, ATP 150 μM; read-out: hKHK-C IC50
human KHK-C, sequence (P50053 whole entry): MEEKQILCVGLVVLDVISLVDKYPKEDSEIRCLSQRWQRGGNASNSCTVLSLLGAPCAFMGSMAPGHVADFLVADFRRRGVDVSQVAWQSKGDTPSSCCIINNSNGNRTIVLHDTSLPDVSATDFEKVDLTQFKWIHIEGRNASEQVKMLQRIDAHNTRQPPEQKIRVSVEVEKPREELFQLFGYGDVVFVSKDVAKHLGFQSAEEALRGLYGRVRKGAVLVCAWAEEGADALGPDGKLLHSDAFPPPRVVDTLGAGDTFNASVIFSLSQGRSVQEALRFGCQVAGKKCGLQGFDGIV
Method: as §1, §2, §3, §4

[9] = target: OATP1B1 (Homo sapiens (Human), UniProt Q9Y6L6); assay: Inhibition of OATP1B1 (rosuvastatin uptake); type: cell-based; conditions: rosuvastatin 400 nM substrate, 30 min pre-incubation
OATP1B1, sequence (Q9Y6L6 whole entry, species assumed): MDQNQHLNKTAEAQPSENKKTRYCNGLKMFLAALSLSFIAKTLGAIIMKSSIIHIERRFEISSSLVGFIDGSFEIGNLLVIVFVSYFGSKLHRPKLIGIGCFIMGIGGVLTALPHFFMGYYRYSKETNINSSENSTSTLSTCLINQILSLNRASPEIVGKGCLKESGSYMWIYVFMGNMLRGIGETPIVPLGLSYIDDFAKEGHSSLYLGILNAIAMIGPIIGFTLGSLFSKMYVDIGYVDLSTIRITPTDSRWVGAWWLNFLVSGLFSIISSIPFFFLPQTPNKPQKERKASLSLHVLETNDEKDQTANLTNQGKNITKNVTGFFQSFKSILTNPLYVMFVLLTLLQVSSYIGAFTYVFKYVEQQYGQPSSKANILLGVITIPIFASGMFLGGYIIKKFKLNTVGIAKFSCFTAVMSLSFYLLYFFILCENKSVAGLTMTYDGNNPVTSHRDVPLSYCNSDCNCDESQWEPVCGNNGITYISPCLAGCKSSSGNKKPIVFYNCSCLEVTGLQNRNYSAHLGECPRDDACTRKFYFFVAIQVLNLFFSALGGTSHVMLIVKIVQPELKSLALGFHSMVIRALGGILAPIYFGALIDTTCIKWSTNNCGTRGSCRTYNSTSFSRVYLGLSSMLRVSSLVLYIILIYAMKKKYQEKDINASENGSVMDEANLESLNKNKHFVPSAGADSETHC
Method: as §7, §8

[10] = Pharmacokinetics in Beagle dogs; type: in vivo
Method: as §5
Example 1 is administered by a single oral (PO; 3 mg/kg; volume of 2 mL/kg) or intravenous (IV; 1 mg/kg; volume of 1 mL/kg) dose in vehicle. Blood is collected from each animal at 0, 0.03 (IV group only), 0.08 (IV), 0.25, 0.5, 1, 2, 4, 8, 12, 24, 32 (IV), 48 (IV), and 72 (IV) h post-dosage. The plasma concentrations of Example 1 are determined by a LC-MS/MS method as described above.

[11] = liver at 24 h, read-out: mean liver unbound partition coefficient (Kpuu)
[12] = plasma, 1 mg/kg, heading: mean clearance
[13] = plasma, read-out: volume of distribution

human KHK-A, sequence (P50053 other isoform, or with tags, fused parts or gaps): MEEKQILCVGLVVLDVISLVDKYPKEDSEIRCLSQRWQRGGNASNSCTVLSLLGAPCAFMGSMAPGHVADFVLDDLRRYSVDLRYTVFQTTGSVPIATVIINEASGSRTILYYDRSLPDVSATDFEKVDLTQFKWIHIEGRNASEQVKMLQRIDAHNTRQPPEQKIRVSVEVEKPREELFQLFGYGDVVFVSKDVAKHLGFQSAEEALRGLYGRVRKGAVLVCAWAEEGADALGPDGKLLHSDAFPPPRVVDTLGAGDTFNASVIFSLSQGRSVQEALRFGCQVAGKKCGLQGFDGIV

- IC50 [1]: 19 nM
- Kp uu at 24 h [2, 11]: 67.5
- clearance [2, 12]: 6.91 mL/min/kg
- half-life ([2]; plasma): 5.43 h
- Vd [2, 13]: 2.74 L/kg
- inhibition of clearance by ABT [3]: ~12%
- Kp uu at 24 h [4, 11]: 24.2
- clearance [4, 12]: 1.34 mL/min/kg
- half-life ([4]; plasma): 9.36 h
- Vd [4, 13]: 0.986 L/kg
- IC50 [5]: 5500 nM
- half-life [6]: 15.3 h
- administered IV dose recovered in bile [7]: ~10%
- urine levels [7]: negligible
- clearance ([7]; dog, plasma, 1 mg/kg, heading: mean clearance): 4.69 mL/min/kg
- half-life ([7]; dog, plasma): 2.9 h
- Vd ([7]; dog, plasma, read-out: volume of distribution): 0.546 L/kg
- IC50 [8]: 9 nM
- IC50 [9]: 120 nM
- mean half-life ([10]; IV 1 mg/kg): 7.4 h
- clearance ([10]; dog, plasma, 1 mg/kg, heading: mean clearance, IV 1 mg/kg): 2.52 mL/min/kg
- half-life ([10]; dog, plasma, IV 1 mg/kg): 7.4 h
- Vd ([10]; dog, plasma, IV 1 mg/kg, read-out: volume of distribution): 1.33 L/kg
- bioavailability ([10]; dog, plasma, PO 3 mg/kg): ~93%
- half-life ([10]; dog, plasma, PO 3 mg/kg): 6.9 h
Structure (SMILES): C[C@H]1CCN1c1nc(N2CC[C@H](CC(=O)O)C2)cc(C(F)(F)F)c1C#N [Example 1, 2-[(3R)-1-[5-cyano-6-[(2S)-2-methylazetidin-1-yl]-4-(trifluoromethyl)-2-pyridyl]pyrrolidin-3-yl]acetic Acid]

- IC50 [1]: 37 nM
- IC50 [8]: 27 nM
Structure (SMILES): C[C@H]1CCN1c1nc(N2CC(CC(=O)O)C2)cc(C(F)(F)F)c1C#N [Example 2, 2-[1-[5-cyano-6-[(2S)-2-methylazetidin-1-yl]-4-(trifluoromethyl)-2-pyridyl]azetidin-3-yl]acetic Acid]
